Experimental data: PubChem BioAssay (NCI)
“And” between values parts separate entries of the source, which are not always exact repeats. Equal values may be shown once.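 Exposure lasted 48 hours, with cells grown in 96-well plates and compounds tested at five concentrations. GI50 marks 50% less growth. TGI: concentration producing complete growth inhibition.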

Key:
Assay in all cases: inhibition of tumour cell growth, NCI panel, 48 h
786-0 renal = test system: 786-0 renal
HCC-2998 colon = test system: HCC-2998 colon
HOP-62 NSCLC = test system: HOP-62 NSCLC
K-562 leukemia = test system: K-562 leukemia
KM12 colon = test system: KM12 colon
NCI-H460 lung = test system: NCI-H460 lung
OVCAR-3 ovarian = test system: OVCAR-3 ovarian
SK-MEL-28 melanoma = test system: SK-MEL-28 melanoma
SNB-75 CNS = test system: SNB-75 CNS
SR leukemia = test system: SR leukemia

| SMILES | TGI (786-0 renal) | TGI (HCC-2998 colon) | TGI (HOP-62 NSCLC) | TGI (K-562 leukemia) | TGI (KM12 colon) | TGI (NCI-H460 lung) | TGI (OVCAR-3 ovarian) | TGI (SK-MEL-28 melanoma) | TGI (SNB-75 CNS) | TGI (SR leukemia) | GI50 (HCC-2998 colon) | GI50 (K-562 leukemia) | GI50 (KM12 colon) | GI50 (SK-MEL-28 melanoma) | GI50 (SNB-75 CNS) |
| --- | --- | --- | --- | --- | --- | --- | --- | --- | --- | --- | --- | --- | --- | --- | --- |
| COC(=O)[C@@H](NC(=O)c1ccc(CNC(=O)/C(C)=C/c2ccccc2)cc1)C(C)C | > 100 µM | 79.9 µM | > 100 µM | > 100 µM | > 100 µM | > 100 µM | > 100 µM | > 100 µM | > 100 µM | > 100 µM |  |  |  |  |  |
| NC(CS)C(=O)NCCNc1ccc(NCCNC(=O)C(N)CS)c2c1C(=O)c1c(O)ccc(O)c1C2=O (stereo not drawn) | 0.0831 µM and 0.0438 µM | 1.13 µM and 0.822 µM | 0.03 µM and 0.0483 µM | 0.614 µM and 0.145 µM | 0.874 µM and 0.264 µM | 0.208 µM and 0.125 µM | 1.76 µM and 1.58 µM | 2 µM and 1.81 µM | 0.2 µM and 0.206 µM | 0.232 µM | 0.196 µM | 0.0192 µM | 0.0393 µM | 0.43 µM | 0.0146 µM |
| Cc1ccc(S(=O)(=O)NCCCSCCO)cc1 |  | > 100 µM |  | > 100 µM | > 100 µM | > 100 µM | > 100 µM | > 100 µM | > 100 µM | > 100 µM |  |  |  |  |  |
| CC1(C)OC2[C@@H](CO[C@@]3([C@H]4OC(C)(C)O[C@@H]4CO)OC(C)(C)O[C@@H]23)O1 (stereo partly drawn) | > 100 µM | > 100 µM | > 100 µM | > 100 µM | > 100 µM | > 100 µM | > 100 µM | > 100 µM | > 100 µM | > 100 µM |  |  |  |  |  |
| CCN(CCN(CC)C(=O)NC)C(=O)NC | > 100 µM | > 100 µM | > 100 µM | > 100 µM |  | > 100 µM |  | > 100 µM | > 100 µM | > 100 µM |  |  |  |  |  |
| COc1cc(/C=C/C2=NN(c3cccc(S(=O)(=O)O)c3)C3(C2)SCC(=O)N3c2nc3ccccc3s2)cc(OC)c1OC (stereo not drawn) | 37.5 µM | > 100 µM |  | > 100 µM | > 100 µM | > 100 µM |  | > 100 µM | > 100 µM | 66.2 µM |  |  |  |  |  |
| C[C@]12CCC(=O)C=C1CC[C@@H]1C2CC[C@@]2(C)C1CC[C@@H]2OC(=O)C12OC1CCC2=O (stereo partly drawn) | 30 µM | 59 µM | 70 µM | 59.4 µM | 35 µM | 31.8 µM | 32.9 µM | 31.6 µM | 33.9 µM | 53.4 µM |  |  |  |  |  |
| CCOC(=O)C(NC(=O)c1ccccc1)(Nc1ccc(S(=O)(=O)Nc2ccc(OC)nn2)cc1)C(F)(F)F (stereo not drawn) | > 100 µM | > 100 µM | > 100 µM | > 100 µM | > 100 µM | > 100 µM | > 100 µM | > 100 µM | > 100 µM | > 100 µM |  |  |  |  |  |
| O=C1C(c2c(O)[nH]c3ccc(I)cc23)=Nc2ccccc21 | 4.39 µM | > 22.9 µM | 30 µM | > 100 µM | > 100 µM | > 88.6 µM | 29.2 µM | > 86.3 µM | 17 µM | > 100 µM |  |  |  |  |  |
| O=C1NC2OC(CO)C(O)C(O)C2O1 (stereo not drawn) | > 100 µM | > 100 µM | > 100 µM | > 100 µM | > 100 µM | > 100 µM | > 100 µM | > 100 µM | > 100 µM | > 100 µM |  |  |  |  |  |
| CC(C)(CO)NC(=O)c1cccs1 | > 100 µM | > 100 µM | > 100 µM | > 100 µM | > 100 µM | > 100 µM | > 100 µM | > 100 µM |  | > 100 µM |  |  |  |  |  |
